The text below walks through data of article PMC7221589, “Development of a Rapid Mass Spectrometric Determination of AMP and Cyclic AMP for PDE3 Activity Study: Application and Computational Analysis for Evaluating the Effect of a Novel 2-oxo-1,2-dihydropyridine-3-carbonitrile Derivative as PDE-3 Inhibitor” (Molecules, 2020).

In this assay the target is PDE3A (phosphodiesterase enzyme 3A) (Homo sapiens, UniProt Q14432). The assay can be described thus: MS/MS assay of cAMP hydrolysis to AMP by purchased PDE3A, dose-response. Type of assay: biochemical.
Sequence of PDE3A (phosphodiesterase enzyme 3A) (Q14432 whole entry): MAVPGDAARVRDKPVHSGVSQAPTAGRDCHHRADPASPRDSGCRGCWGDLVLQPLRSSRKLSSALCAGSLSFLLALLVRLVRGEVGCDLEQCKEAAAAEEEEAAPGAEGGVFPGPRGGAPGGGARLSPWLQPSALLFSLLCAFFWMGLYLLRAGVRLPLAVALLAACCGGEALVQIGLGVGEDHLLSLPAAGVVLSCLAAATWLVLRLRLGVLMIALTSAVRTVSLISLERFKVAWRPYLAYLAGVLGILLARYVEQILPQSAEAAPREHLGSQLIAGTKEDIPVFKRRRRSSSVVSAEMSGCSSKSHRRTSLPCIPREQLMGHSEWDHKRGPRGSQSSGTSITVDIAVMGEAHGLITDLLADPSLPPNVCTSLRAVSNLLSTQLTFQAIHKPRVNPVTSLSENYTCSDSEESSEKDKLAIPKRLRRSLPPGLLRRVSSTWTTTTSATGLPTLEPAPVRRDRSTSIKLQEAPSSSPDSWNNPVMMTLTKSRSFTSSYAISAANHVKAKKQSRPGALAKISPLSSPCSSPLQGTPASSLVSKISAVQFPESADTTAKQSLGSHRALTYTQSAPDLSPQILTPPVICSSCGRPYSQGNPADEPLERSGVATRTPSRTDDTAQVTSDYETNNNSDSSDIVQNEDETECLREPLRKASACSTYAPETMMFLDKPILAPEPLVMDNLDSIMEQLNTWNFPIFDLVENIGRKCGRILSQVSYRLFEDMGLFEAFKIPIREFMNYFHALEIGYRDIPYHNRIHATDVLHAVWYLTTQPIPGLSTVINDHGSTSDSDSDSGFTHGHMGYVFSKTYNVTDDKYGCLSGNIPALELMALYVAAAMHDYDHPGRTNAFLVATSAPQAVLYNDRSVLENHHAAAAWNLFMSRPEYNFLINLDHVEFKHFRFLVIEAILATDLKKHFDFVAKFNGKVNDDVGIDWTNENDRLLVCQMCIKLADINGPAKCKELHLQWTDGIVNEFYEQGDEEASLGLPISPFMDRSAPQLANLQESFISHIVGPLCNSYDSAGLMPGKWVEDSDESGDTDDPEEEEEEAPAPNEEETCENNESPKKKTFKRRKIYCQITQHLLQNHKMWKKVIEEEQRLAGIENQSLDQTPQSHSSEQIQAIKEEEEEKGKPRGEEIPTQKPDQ

For orientation: IC50 means the point on the concentration scale where inhibition reaches its midpoint. Read a low IC50 as greater potency. `CCOC(=O)N1CCC(NC(=O)c2cc(C#N)c(=O)[nH]c2C)CC1` [DF492] displayed an IC50 of 410 nM.
